Where a name gives a salt, the structure may show the parent alone. Read-outs that look alike come from different tables or passages of the source.
How the values were obtained:
BTK = BTK (Homo sapiens (Human), UniProt Q06187); test: In Vitro BTK Kinase Assay: Btk-PolyGAT-LS Assay; type: biochemical; settings: active BTK enzyme 0.25 nM, ATP 10 μM, polyGAT 100 nM, 30 minutes
Outline: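 Recombinant BTK (0.25 nM) phosphorylating 100 nM polyGAT at 10 μM ATP in Tris-HCl pH 7.5 buffer with MgCl2, DTT, Triton X-100 and casein, 30 min, then EDTA stop.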

[1] = system: CD69 expression on CD19+ B cells in whole blood; test: In Vitro Whole Blood CD69 Assay; type: cell-based, Human; settings: Homo sapiens, B-cell
Procedure: In Vitro Whole Blood CD69 Assay
Human heparinized venous blood from health donors was aliquoted into 96-well plate and “spiked” with serial dilutions of formula I compounds in DMSO or with DMSO without drug. The final concentration of DMSO in all wells was 0.1%. The plate was incubated at 37° C. for 30 min. Drug-containing samples were stimulated with 0.1 μg/mL mouse anti-human IgD-dextran (1A62) or 20 μg/mL polyclonal rabbit F(ab′)2 anti-human IgD. Phosphate-buffered saline (PBS) was added to the negative control unstimulated sample and the plates were incubated overnight (18 to 22 hours) at 37° C. Cells were stained with fluorochrome-conjugated anti-CD19 and anti-CD69 antibodies. Lyse/fix solution was used to remove red blood cells by hypotonic lysis and to fix the remaining cells, which were then analyzed by flow cytometry. CD19+ B cells were gated and analyzed for CD69 expression. The percentage of B cells expressing CD69 was plotted versus the log 10 of the concentration of the drug and the best-fit curves (variable Hill slope) were generated to obtain the IC50 value.

[2] = human heparinized whole blood, anti-human IgD stimulation, percentage of CD19+ B cells expressing CD69, read-out: IC50

BTK, sequence (Q06187 whole entry): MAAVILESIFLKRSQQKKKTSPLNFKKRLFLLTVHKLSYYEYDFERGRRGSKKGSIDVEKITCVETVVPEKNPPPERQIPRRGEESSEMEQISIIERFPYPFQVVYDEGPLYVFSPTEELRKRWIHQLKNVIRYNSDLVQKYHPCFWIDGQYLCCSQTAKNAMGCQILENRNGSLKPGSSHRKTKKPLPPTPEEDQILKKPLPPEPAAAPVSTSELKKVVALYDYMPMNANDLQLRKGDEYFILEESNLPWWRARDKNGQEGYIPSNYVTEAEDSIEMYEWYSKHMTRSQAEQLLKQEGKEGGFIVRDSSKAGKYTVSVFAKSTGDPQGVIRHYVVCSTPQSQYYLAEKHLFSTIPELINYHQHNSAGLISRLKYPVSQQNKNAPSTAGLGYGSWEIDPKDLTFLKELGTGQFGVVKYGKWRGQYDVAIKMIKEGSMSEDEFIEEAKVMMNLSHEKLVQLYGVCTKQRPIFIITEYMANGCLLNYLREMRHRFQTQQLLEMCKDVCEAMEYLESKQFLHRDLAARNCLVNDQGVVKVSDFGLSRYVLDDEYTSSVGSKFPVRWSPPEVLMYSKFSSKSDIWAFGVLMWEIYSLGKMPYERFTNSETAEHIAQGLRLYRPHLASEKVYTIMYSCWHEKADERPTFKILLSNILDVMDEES

SMILES | IC50 (BTK) [nM] | IC50 [1] [nM] | IC50 [1, 2] [nM]
CC(C)(C)c1noc(C(=O)NCc2ccc(-c3ncnn4cc(N5CCOCC5)cc34)c(F)c2Cl)n1 [Example 14, 3-(tert-butyl)-N-(2-chloro-3-fluoro-4-(6-morpholinopyrrolo[2,1-f][1,2,4]triazin-4-yl)benzyl)-1,2,4-oxadiazole-5-carboxamide trifluoroacetate] | ≤ 1 | 100 to 1000 | 
CC(C)(C)c1nc(C(=O)NCc2ccc(-c3ncnn4cc(N5CCOCC5)cc34)cc2Cl)no1 [Example 15, 5-(tert-butyl)-N-(2-chloro-4-(6-morpholinopyrrolo[2,1-f][1,2,4]triazin-4-yl)benzyl)-1,2,4-oxadiazole-3-carboxamide trifluoroacetate] | ≤ 1 |  | 100 to 1000
Cc1cc(-c2ccnc3cc(-c4cnn(C)c4)nn23)ccc1CNC(=O)c1noc(C(C)(C)C)n1 [Example 16, 5-(tert-butyl)-N-(2-methyl-4-(2-(1-methyl-1H-pyrazol-4-yl)pyrazolo[1,5-a]pyrimidin-7-yl)benzyl)-1,2,4-oxadiazole-3-carboxamide trifluoroacetate] | ≤ 1 |  | 100 to 1000
Cc1c([C@@H](C)NC(=O)c2noc(C(C)(C)C)n2)ccc(-c2ncnn3cc(N4CCOCC4)cc23)c1F [Example 31, (R)-5-(tert-butyl)-N-(1-(3-fluoro-2-methyl-4-(6-morpholinopyrrolo[2,1-f][1,2,4]triazin-4-yl)phenyl)ethyl)-1,2,4-oxadiazole-3-carboxamide] | ≤ 1 |  | 100 to 1000
Cc1cc(-c2ncnn3cc(N4CCN(C5COC5)CC4)cc23)ccc1CNC(=O)c1noc(C(C)(C)C)n1 [Example 32, 5-(tert-butyl)-N-(2-methyl-4-(6-(4-(oxetan-3-yl)piperazin-1-yl)pyrrolo[2,1-f][1,2,4]triazin-4-yl)benzyl)-1,2,4-oxadiazole-3-carboxamide trifluoroacetate] | ≤ 1 |  | 100 to 1000
Cc1c(CNC(=O)c2noc(C(C)(C)CF)n2)ccc(-c2ncnn3cc(-c4cnn(C)c4)cc23)c1F [Example 33, N-(3-fluoro-2-methyl-4-(6-(1-methyl-1H-pyrazol-4-yl)pyrrolo[2,1-f][1,2,4]triazin-4-yl)benzyl)-5-(1-fluoro-2-methylpropan-2-yl)-1,2,4-oxadiazole-3-carboxamide] | ≤ 1 |  | 100 to 1000
CC(C)(C)c1nc(C(=O)NCc2ccc(-c3ncnn4cc(N5CCOCC5)cc34)cc2C(F)(F)F)no1 [Example 34, 5-(tert-butyl)-N-(4-(6-morpholinopyrrolo[2,1-f][1,2,4]triazin-4-yl)-2-(trifluoromethyl)benzyl)-1,2,4-oxadiazole-3-carboxamide hydrochloride] | ≤ 1 |  | 100 to 1000
COc1cc(-c2ncnn3cc(-c4cnn(C)c4)cc23)ccc1CNC(=O)c1noc(C(C)(C)C)n1 [Example 35, 5-(tert-butyl)-N-(2-methoxy-4-(6-(1-methyl-1H-pyrazol-4-yl)pyrrolo[2,1-f][1,2,4]triazin-4-yl)benzyl)-1,2,4-oxadiazole-3-carboxamide hydrochloride] | ≤ 1 |  | 100 to 1000
Cn1cc(-c2cc3c(-c4ccc(CNC(=O)c5noc(C(C)(C)C)n5)c(C(F)F)c4F)ncnn3c2)cn1 [Example 36, 5-(tert-butyl)-N-(2-(difluoromethyl)-3-fluoro-4-(6-(1-methyl-1H-pyrazol-4-yl)pyrrolo[2,1-f][1,2,4]triazin-4-yl)benzyl)-1,2,4-oxadiazole-3-carboxamide hydrochloride] | ≤ 1 |  | 100 to 1000
CC(C)(C)c1nc(C(=O)NCc2ccc(-c3ncnn4cc(N5CCOCC5)cc34)cc2C2CC2)no1 [Example 37, 5-(tert-butyl)-N-(2-cyclopropyl-4-(6-morpholinopyrrolo[2,1-f][1,2,4]triazin-4-yl)benzyl)-1,2,4-oxadiazole-3-carboxamide] | ≤ 1 |  | > 1000
Cc1cc(-c2ncnn3cc(-c4ccncc4)cc23)ccc1CNC(=O)c1noc(C(C)(C)C)n1 [Example 38, 5-(tert-butyl)-N-(2-methyl-4-(6-(pyridin-4-yl)pyrrolo[2,1-f][1,2,4]triazin-4-yl)benzyl)-1,2,4-oxadiazole-3-carboxamide] | ≤ 1 |  | 100 to 1000
Cc1cc(-c2ncnn3cc(N4C[C@@H](C)O[C@@H](C)C4)cc23)ccc1CNC(=O)c1noc(C(C)(C)C)n1 [Example 39, 5-(tert-butyl)-N-(4-(6-((2,6-syn)-2,6-dimethylmorpholino)pyrrolo[2,1-f][1,2,4]triazin-4-yl)-2-methylbenzyl)-1,2,4-oxadiazole-3-carboxamide] | ≤ 1 |  | 100 to 1000
Cc1cc(-c2ncnn3cc(-c4cnn(C)c4)cc23)ccc1CNC(=O)c1noc(C2(C)CC2)n1 [Example 40, N-(2-methyl-4-(6-(1-methyl-1H-pyrazol-4-yl)pyrrolo[2,1-f][1,2,4]triazin-4-yl)benzyl)-5-(1-methylcyclopropyl)-1,2,4-oxadiazole-3-carboxamide] | ≤ 1 |  | 100 to 1000
COc1c(CNC(=O)c2nc(C(C)(C)C)no2)ccc(-c2ncnn3cc(-c4cnn(C)c4)cc23)c1F [Example 45, 3-(tert-butyl)-N-(3-fluoro-2-methoxy-4-(6-(1-methyl-1H-pyrazol-4-yl)pyrrolo[2,1-f][1,2,4]triazin-4-yl)benzyl)-1,2,4-oxadiazole-5-carboxamide] | ≤ 1 |  | 100 to 1000
CC(C)(C)c1nc(C(=O)N[C@@H]2CCCCc3c2ccc(-c2ncnn4cccc24)c3F)no1 [Example 56, (R)-5-(tert-butyl)-N-(1-fluoro-2-(pyrrolo[2,1-f][1,2,4]triazin-4-yl)-6,7,8,9-tetrahydro-5H-benzo[7]annulen-5-yl)-1,2,4-oxadiazole-3-carboxamide hydrochloride] | ≤ 1 |  | 100 to 1000
Cc1cc(-c2ncnn3cc(-c4cnn(C)c4)cc23)ccc1[C@@H](C)NC(=O)c1nc(C(C)(C)C)no1 [Example 57, (R)-3-(tert-butyl)-N-(1-(2-methyl-4-(6-(1-methyl-1H-pyrazol-4-yl)pyrrolo[2,1-f][1,2,4]triazin-4-yl)phenyl)ethyl)-1,2,4-oxadiazole-5-carboxamide] | ≤ 1 |  | 100 to 1000
COCCOc1cc2c(-c3ccc(CNC(=O)c4noc(C(C)(C)C)n4)c(C)c3)ncnn2c1 [Example 58, 5-(tert-butyl)-N-(4-(6-(2-methoxyethoxy)pyrrolo[2,1-f][1,2,4]triazin-4-yl)-2-methylbenzyl)-1,2,4-oxadiazole-3-carboxamide] | ≤ 1 |  | < 100

From patent US12391697B2, “Condensed bi-heterocycles as inhibiting agents for Bruton's tyrosine kinase” (BIOGEN MA INC., priority 2019, dated 2025)
